Results as given in PubChem BioAssay AID256 (DTP/NCI, 2004).
Several values for one entry are separate records, joined by “and”; a condition that tells them apart may be missing. Equal entries are not always repeated. Inconclusive results and toxic doses are left out. The calls were made as follows: active = survival T/C of 150% or more; inactive = T/C below 125% in these data.

Tested on: CD2F1 mice, L1210 leukemia ip, survival T/C
Assay: NCI In Vivo Anticancer Drug Screen. Data for tumor model L1210 Leukemia (intraperitoneal) in CD2F1 (CDF1) mice
Conditions: higher = longer survival
Summary of the method: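 Ratio T/C, where T is the treated-group value and C the vehicle-dosed control value, from mice implanted with a transplantable tumor.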

[1] = endpoint: mean survival time, dose: 12.5 mg/kg/injection, schedule: Q01DX009 (ip), vehicle: saline with Tween-80
[2] = endpoint: mean survival time, dose: 25.0 mg/kg/injection, schedule: Q04DX003 (ip), vehicle: saline with Tween-80
[3] = endpoint: mean survival time, dose: 50.0 mg/kg/injection, schedule: Q01DX009 (ip), vehicle: saline with Tween-80
[4] = endpoint: mean survival time, dose: 50.0 mg/kg/injection, schedule: Q04DX003 (ip), vehicle: saline with Tween-80
[5] = endpoint: mean survival time, dose: 100.0 mg/kg/injection, schedule: Q01DX009 (ip), vehicle: Klucel (hydroxypropylcellulose) (HPC)
[6] = endpoint: mean survival time, dose: 200.0 mg/kg/injection, schedule: Q01DX009 (ip), vehicle: Klucel (hydroxypropylcellulose) (HPC)
[7] = endpoint: mean survival time, dose: 100.0 mg/kg/injection, schedule: Q01DX009 (ip), vehicle: saline with Tween-80
[8] = endpoint: mean survival time, dose: 200.0 mg/kg/injection, schedule: Q01DX009 (ip), vehicle: saline with Tween-80
[9] = endpoint: mean survival time, dose: 12.5 mg/kg/injection, schedule: Q01DX005 (ip), vehicle: distilled water + Tween-80
[10] = endpoint: mean survival time, dose: 25.0 mg/kg/injection, schedule: Q01DX005 (ip), vehicle: distilled water + Tween-80
[11] = endpoint: mean survival time, dose: 50.0 mg/kg/injection, schedule: Q01DX005 (ip), vehicle: distilled water + Tween-80
[12] = endpoint: mean survival time, dose: 75.0 mg/kg/injection, schedule: Q01DX001 (ip), vehicle: saline
[13] = endpoint: mean survival time, dose: 150.0 mg/kg/injection, schedule: Q01DX001 (ip), vehicle: saline
[14] = endpoint: mean survival time, dose: 300.0 mg/kg/injection, schedule: Q01DX001 (ip), vehicle: saline
[15] = endpoint: mean survival time, dose: 100.0 mg/kg/injection, schedule: Q04DX003 (ip), vehicle: saline
[16] = endpoint: mean survival time, dose: 200.0 mg/kg/injection, schedule: Q04DX003 (ip), vehicle: saline
[17] = endpoint: mean survival time, dose: 100.0 mg/kg/injection, schedule: Q04DX003 (ip), vehicle: saline with Tween-80
[18] = endpoint: mean survival time, dose: 200.0 mg/kg/injection, schedule: Q04DX003 (ip), vehicle: saline with Tween-80
[19] = endpoint: mean survival time, dose: 400.0 mg/kg/injection, schedule: Q04DX003 (ip), vehicle: saline with Tween-80

Measured: T/C

O=[N+]([O-])c1c(Br)sc(Br)c1[N+](=O)[O-]
inactive: [1] 97 % of control | endpoint: mean survival time, dose: 12.5 mg/kg/injection, schedule: Q04DX003 (ip), vehicle: saline with Tween-80 101 % of control | endpoint: mean survival time, dose: 25.0 mg/kg/injection, schedule: Q01DX009 (ip), vehicle: saline with Tween-80 88 % of control | [2] 103 % of control | [3] 95 % of control | [4] 109 % of control

O=C(/C=C/c1ccc(Cl)cc1)/C=C/c1ccc(Cl)cc1
inactive: endpoint: mean survival time, dose: 50.0 mg/kg/injection, schedule: Q01DX009 (ip), vehicle: Klucel (hydroxypropylcellulose) (HPC) 94 % of control | [5] 98 % of control | [6] 94 % of control

CCOC(=O)C1CC1C(=O)OC (configuration not stated)
inactive: [3] 90 % of control | [7] 88 % of control | [8] 92 % of control

CCCc1cc(C(C)=O)c[n+](C2OC(COC(=O)c3ccccc3)C(OC(=O)c3ccccc3)C2O)c1 (configuration not stated)
inactive: endpoint: mean survival time, dose: 3.13 mg/kg/injection, schedule: Q01DX005 (ip), vehicle: distilled water + Tween-80 109 % of control | endpoint: mean survival time, dose: 6.25 mg/kg/injection, schedule: Q01DX005 (ip), vehicle: distilled water + Tween-80 92 % of control | [9] 93 % of control | [10] 89 % of control | [11] 90 % of control and 97 % of control

O/N=C(/CC(O)(c1ccccc1)c1ccccc1)c1ccccc1
inactive: [12] 98 % of control | [13] 103 % of control | [14] 95 % of control

C/C=C(\C(=C\C)c1ccc(OC(=O)c2ccccc2)c(C2CCCCC2)c1)c1ccc(O)c(C2CCCCC2)c1
inactive: [12] 95 % of control | [13] 95 % of control | [14] 103 % of control

CC12CCCC1=[N+]1CCCCC1CC2=O (configuration not stated)
inactive: [15] 101 % of control | [16] 101 % of control

COC1=CC2=C3[C@H](Cc4cc5c(c(c4)Oc4ccc(cc4)C[C@H]4c6cc7c(cc6CCN4C)OCC3(O7)C1=O)OCO5)N(C)CC2 (some centres not stated)
inactive: [4] 96 % of control | [17] 98 % of control | [18] 96 % of control

COc1ccc(C2OC(=O)c3cccnc32)cc1OC (configuration not stated)
inactive: endpoint: mean survival time, dose: 12.5 mg/kg/injection, schedule: Q01DX009 (ip), vehicle: other 90 % of control | endpoint: mean survival time, dose: 50.0 mg/kg/injection, schedule: Q01DX009 (ip), vehicle: other 87 % of control | endpoint: mean survival time, dose: 200.0 mg/kg/injection, schedule: Q01DX009 (ip), vehicle: other 88 % of control

O=C(Nc1ccc(O)cc1)c1c(O)[nH]c(=S)[nH]c1=O
inactive: endpoint: median survival time, dose: 12.5 mg/kg/injection, schedule: Q01DX009 (ip), vehicle: saline with Tween-80 107 % of control | endpoint: median survival time, dose: 25.0 mg/kg/injection, schedule: Q01DX009 (ip), vehicle: saline with Tween-80 106 % of control | endpoint: median survival time, dose: 50.0 mg/kg/injection, schedule: Q01DX009 (ip), vehicle: saline with Tween-80 106 % of control | endpoint: median survival time, dose: 100.0 mg/kg/injection, schedule: Q01DX009 (ip), vehicle: saline with Tween-80 100 % of control

O=c1[nH]c(SCc2ccccc2)nc(-c2ccc(Cl)cc2)c1CCO
inactive: [5] 87 % of control | [6] 89 % of control | endpoint: mean survival time, dose: 400.0 mg/kg/injection, schedule: Q01DX009 (ip), vehicle: Klucel (hydroxypropylcellulose) (HPC) 88 % of control

CC1(C)OCCCO1
inactive: endpoint: mean survival time, dose: 25.0 mg/kg/injection, schedule: Q04DX002 (ip), vehicle: saline 104 % of control | endpoint: mean survival time, dose: 50.0 mg/kg/injection, schedule: Q04DX002 (ip), vehicle: saline 96 % of control | endpoint: mean survival time, dose: 100.0 mg/kg/injection, schedule: Q04DX002 (ip), vehicle: saline 100 % of control

O=Cc1ccc(OC(=O)Nc2cccc3ccccc23)cc1
inactive: endpoint: mean survival time, dose: 100.0 mg/kg/injection, schedule: Q04DX002 (ip), vehicle: saline with Tween-80 91 % of control | endpoint: mean survival time, dose: 200.0 mg/kg/injection, schedule: Q04DX002 (ip), vehicle: saline with Tween-80 98 % of control | endpoint: mean survival time, dose: 400.0 mg/kg/injection, schedule: Q04DX002 (ip), vehicle: saline with Tween-80 87 % of control

CCC(=O)NC1=C(Cl)C(=O)c2ccccc2C1=O
inactive: endpoint: mean survival time, dose: 5.0 mg/kg/injection, schedule: Q01DX001 (ip), vehicle: saline 91 % of control | endpoint: mean survival time, dose: 10.0 mg/kg/injection, schedule: Q01DX001 (ip), vehicle: saline 101 % of control | endpoint: mean survival time, dose: 20.0 mg/kg/injection, schedule: Q01DX001 (ip), vehicle: saline 97 % of control

CC(NC1=NCCO1)c1cccc2ccccc12 (configuration not stated)
inactive: [17] 89 % of control

C[P+]1(c2ccccc2)c2ccccc2Oc2ccccc21
inactive: [12] 102 % of control

O=c1cc(CBr)c2ccccc2[nH]1
inactive: [2] 103 % of control

NC(=O)C1CCCCC1C(N)=O (configuration not stated)
inactive: [7] 105 % of control | [8] 105 % of control | endpoint: mean survival time, dose: 400.0 mg/kg/injection, schedule: Q01DX009 (ip), vehicle: saline with Tween-80 103 % of control

Nc1nc(=S)c2ncn(C3OC(CO)C4OC43)c2[nH]1 (configuration not stated)
inactive: [12] 101 % of control | [13] 98 % of control | [14] 97 % of control

COc1ccc(C(=O)NNC(=O)c2ccc(OC)cc2)cc1
inactive: endpoint: mean survival time, dose: 100.0 mg/kg/injection, schedule: Q01DX001 (ip), vehicle: Klucel (hydroxypropylcellulose) (HPC) 108 % of control | endpoint: mean survival time, dose: 200.0 mg/kg/injection, schedule: Q01DX001 (ip), vehicle: Klucel (hydroxypropylcellulose) (HPC) 104 % of control | endpoint: mean survival time, dose: 400.0 mg/kg/injection, schedule: Q01DX001 (ip), vehicle: Klucel (hydroxypropylcellulose) (HPC) 100 % of control

O=[N+]([O-])c1ccc(N/N=C(\c2ccccc2)C2OCCC2c2ccccc2)c([N+](=O)[O-])c1 (configuration not stated)
inactive: [17] 97 % of control | [18] 91 % of control | [19] 94 % of control

CS/C([S-])=N/N=C\c1ccccn1.CS/C([S-])=N/N=C\c1ccccn1.[Ni+2]
inactive: [17] 97 % of control | [18] 96 % of control | [19] 96 % of control

CC(=O)OCC1OC([Se][As](C)C)C(OC(C)=O)C(OC(C)=O)C1OC(C)=O (configuration not stated)
inactive: endpoint: mean survival time, dose: 3.13 mg/kg/injection, schedule: Q01DX009 (ip), vehicle: saline with Tween-80 98 % of control | endpoint: mean survival time, dose: 6.25 mg/kg/injection, schedule: Q01DX001 (ip), vehicle: saline with Tween-80 95 % of control | endpoint: mean survival time, dose: 6.25 mg/kg/injection, schedule: Q01DX009 (ip), vehicle: saline with Tween-80 96 % of control | endpoint: mean survival time, dose: 12.5 mg/kg/injection, schedule: Q01DX001 (ip), vehicle: saline with Tween-80 97 % of control | [1] 96 % of control

Oc1ccc(Sc2ccc(O)cc2O)c(O)c1
inactive: [15] 101 % of control | [16] 103 % of control | endpoint: mean survival time, dose: 400.0 mg/kg/injection, schedule: Q04DX003 (ip), vehicle: saline 93 % of control

Cc1ccc(NC(=O)Nc2ccccc2C(F)(F)F)cc1NC(=O)Nc1ccccc1C(F)(F)F
inactive: [17] 96 % of control | [18] 98 % of control | [19] 104 % of control

Nc1ncnc2c1c1cncnc1n2C1OC(CO)C(O)C1O (configuration not stated)
inactive: [9] 96 % of control | [10] 98 % of control | [11] 93 % of control | endpoint: mean survival time, dose: 100.0 mg/kg/injection, schedule: Q01DX005 (ip), vehicle: distilled water + Tween-80 90 % of control | endpoint: mean survival time, dose: 200.0 mg/kg/injection, schedule: Q01DX005 (ip), vehicle: distilled water + Tween-80 105 % of control | endpoint: mean survival time, dose: 400.0 mg/kg/injection, schedule: Q01DX005 (ip), vehicle: distilled water + Tween-80 110 % of control
